{
  "source": "ChEMBL document CHEMBL4507276",
  "about": "(2021)",
  "key": {"[1]": {"biological_target": "T1, Mitogen-activated protein kinase kinase kinase 5 (Homo sapiens) (UniProt Q99683)", "T1 sequence (whole entry)": "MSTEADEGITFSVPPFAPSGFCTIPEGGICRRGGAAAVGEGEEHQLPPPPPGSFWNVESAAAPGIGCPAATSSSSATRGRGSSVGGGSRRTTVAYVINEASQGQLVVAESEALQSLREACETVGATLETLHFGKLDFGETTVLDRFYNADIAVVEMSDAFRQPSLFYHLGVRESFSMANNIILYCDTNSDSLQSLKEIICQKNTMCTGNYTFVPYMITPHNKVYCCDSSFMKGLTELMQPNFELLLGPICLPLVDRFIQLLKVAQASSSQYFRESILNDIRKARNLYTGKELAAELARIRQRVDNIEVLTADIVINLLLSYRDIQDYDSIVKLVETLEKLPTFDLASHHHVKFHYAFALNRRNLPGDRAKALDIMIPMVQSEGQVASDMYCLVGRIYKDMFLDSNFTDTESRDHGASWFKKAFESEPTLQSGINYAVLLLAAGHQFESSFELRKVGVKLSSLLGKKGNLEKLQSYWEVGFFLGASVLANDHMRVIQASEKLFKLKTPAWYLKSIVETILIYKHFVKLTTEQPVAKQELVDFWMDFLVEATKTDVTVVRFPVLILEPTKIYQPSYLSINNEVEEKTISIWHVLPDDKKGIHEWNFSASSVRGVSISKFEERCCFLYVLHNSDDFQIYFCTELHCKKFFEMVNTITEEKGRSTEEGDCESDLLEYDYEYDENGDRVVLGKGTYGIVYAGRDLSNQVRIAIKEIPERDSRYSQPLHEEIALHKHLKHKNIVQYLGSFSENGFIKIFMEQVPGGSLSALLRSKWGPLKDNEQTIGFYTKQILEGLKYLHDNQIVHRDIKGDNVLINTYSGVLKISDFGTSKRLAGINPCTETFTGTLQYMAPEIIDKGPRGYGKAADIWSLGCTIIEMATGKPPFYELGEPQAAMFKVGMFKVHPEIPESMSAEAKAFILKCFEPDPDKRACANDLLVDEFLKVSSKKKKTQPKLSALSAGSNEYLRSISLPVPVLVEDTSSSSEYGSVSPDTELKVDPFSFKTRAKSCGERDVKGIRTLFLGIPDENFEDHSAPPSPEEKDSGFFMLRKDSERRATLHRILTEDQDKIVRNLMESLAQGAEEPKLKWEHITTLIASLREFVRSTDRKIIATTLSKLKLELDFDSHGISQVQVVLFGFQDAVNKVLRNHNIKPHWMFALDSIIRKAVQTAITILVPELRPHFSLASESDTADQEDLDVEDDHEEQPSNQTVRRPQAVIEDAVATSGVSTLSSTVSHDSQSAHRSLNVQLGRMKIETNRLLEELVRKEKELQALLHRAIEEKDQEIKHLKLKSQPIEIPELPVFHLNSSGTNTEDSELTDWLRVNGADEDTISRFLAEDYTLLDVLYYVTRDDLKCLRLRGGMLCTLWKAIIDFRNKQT", "experiment": "MAP3K5 Invitrogen selectivity data (BI)", "conditions": "Compound concentration 3.0 uM"}, "[2]": {"biological_target": "Prostacyclin receptor (Homo sapiens) (UniProt P43119)", "sequence (P43119 whole entry)": "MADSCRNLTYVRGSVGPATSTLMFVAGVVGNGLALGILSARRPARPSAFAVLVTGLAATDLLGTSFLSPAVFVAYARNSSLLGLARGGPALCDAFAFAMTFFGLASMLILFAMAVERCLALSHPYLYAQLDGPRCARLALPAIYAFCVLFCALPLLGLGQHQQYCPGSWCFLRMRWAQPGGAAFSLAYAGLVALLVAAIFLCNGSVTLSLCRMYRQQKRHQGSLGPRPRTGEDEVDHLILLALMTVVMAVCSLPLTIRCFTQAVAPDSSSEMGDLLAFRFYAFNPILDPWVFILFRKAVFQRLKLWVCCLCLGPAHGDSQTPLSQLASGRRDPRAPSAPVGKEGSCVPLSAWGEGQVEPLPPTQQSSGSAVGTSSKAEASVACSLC", "experiment": "PGI2/H Cerep selectivity data (BI)", "conditions": "Compound concentration 20.0 uM"}},
  "data": [
    {"smiles": "CN(C)C(=O)Cn1cc(-c2nc([C@@](C)(c3ccc(-c4cnc(N)nc4)cc3)C3CC3)no2)cn1", "note": "[BI 665915]", "values": [
      {"measurement": "residual activity", "setting": "[1]", "value": 99, "unit": "%"},
      {"measurement": "residual activity", "setting": "[2]", "value": 94, "unit": "%"}
    ]}
  ]
}
